In the NIST ThermoML archive (doi:10.1021/je100069q):
± gives the expanded uncertainty stated by the source.

Conditions: 101.33 kPa, Liquid

| mass density (313.15 K) [kg/m3] | Structure (SMILES) | mass density (293.15 K) [kg/m3] | further results |
| --- | --- | --- | --- |
| – | Cc1ccccc1O [2-methylphenol] | – | mass density (308.15 K): 1032.73 ± 0.61 kg/m3 |
| – | Cc1cccc(O)c1 [3-methylphenol] | 1033.85 ± 0.28 | – |
| 1018.8 ± 0.27 | Cc1ccc(O)cc1 [4-methylphenol] | – | – |
| – | CCc1ccccc1 [ethylbenzene] | – | mass density (298.15 K): 862.59 ± 0.3 kg/m3 |
| 1058.3 ± 0.35 | Oc1ccccc1 [phenol] | – | – |
| – | Cc1ccccc1 [toluene] | 866.78 ± 0.31 | – |
